Data as given in a melting point compilation (Tetko et al.; mined from patent text by program, amines drawn as free bases though some values may be those of a salt).

Question: Which melting point does the source give for `O=C(Nc1cccc2c1C(=O)c1c-2n[nH]c1-c1ccc(N2CCNCC2)cc1)NN1CCN(CCO)CC1` here?
Answer: The melting point was 279 °C.

Question: Which melting point does the source give for `COc1cc(OC)c(-c2cc3ccccc3[nH]2)cc1C=CC(=O)c1ccc(S(=O)(=O)Nc2ccccn2)cc1` here?
Answer: Its melting point is 206 to 208 °C.

Question: With `COc1cc(Cl)c(NS(C)(=O)=O)cc1C(=O)NCC1CCCO1` (stereo not drawn) as the compound, how does the melting point read?
Answer: The melting point was 159 to 160 °C.

Question: For `Cc1cc(-c2cc([N+](=O)[O-])ccc2F)cc(C)n1`, which melting point is on record?
Answer: The melting point was 169 to 171 °C.

Question: For `COc1ccc2c(c1)c(CC(O)(P(=O)(O)O)P(=O)(O)O)c(C)n2C(=O)c1ccc(Cl)cc1`, which melting point is on record?
Answer: Its melting point is 202 °C.

Question: Which melting point does the source give for `Nc1ccc(Oc2ccccc2)cc1SC(c1ccc2c(c1)OCO2)C(O)C(=O)O` (stereo not drawn) here?
Answer: The melting point was 158 to 159 °C.

Question: For `c1ccc(-c2ccc(Nc3nccc(-c4ccc(-c5ccc(N(c6ccccc6)c6ccccc6)cc5)cc4)n3)cc2)cc1`, which melting point is on record?
Answer: The melting point was > 300 °C.

Question: Which melting point does the source give for `Cc1cc(Cl)cc(NC(=O)C=NO)c1` here?
Answer: The melting point was 206 to 207 °C.

Question: With `O=C(Nc1cccnn1)N1CCN(c2cc(-c3ccc(F)cc3F)ncn2)CC1` as the compound, how does the melting point read?
Answer: The melting point was 249 to 250 °C.

Question: Which melting point does the source give for `O=C(O)c1ccc(-c2cnc3c(c2)N(Cc2c(Cl)cccc2Cl)C(=O)CN3)cc1` here?
Answer: Its melting point is > 200 °C.

Question: With `O=C(CCc1ccc2ccccc2c1)CC(=O)CCc1ccc2ccccc2c1` as the compound, how does the melting point read?
Answer: Its melting point is 123 to 125 °C.

Question: With `Cc1oc(-c2ccccc2)nc1COc1cccc(CN(O)C(N)=O)c1` as the compound, how does the melting point read?
Answer: The melting point was 151 to 152 °C.

Question: Which melting point does the source give for `CC(C)(C)c1cc(CCc2ccccc2NC(=O)NC2CCN(Cc3ccccc3F)CC2)cc(C(C)(C)C)c1O` here?
Answer: The melting point was 136 to 137 °C.

Question: With `CN(c1ccccc1)S(=O)(=O)N[C@@H](Cc1ccc(NC(=O)c2c(Cl)cccc2Cl)cc1)C(=O)O` as the compound, how does the melting point read?
Answer: The melting point was 117 °C.

Question: For `CCCCCCCCCC/C=C/c1ccccc1/C=C/C(=O)O`, which melting point is on record?
Answer: Its melting point is 85 to 86 °C.

Question: For `CS(=O)c1ccc(-c2cc(C#N)nn2-c2ccc(F)cc2)cc1` (stereo not drawn), which melting point is on record?
Answer: The melting point was 104 to 105 °C.

Question: With `CCc1cc(NC(C)=O)c(C=O)c(CC)n1` as the compound, how does the melting point read?
Answer: The melting point was 91 to 92 °C.

Question: With `C=C(F)C(=O)Oc1ccc(C#N)cc1` as the compound, how does the melting point read?
Answer: The melting point was 78 to 79 °C.

Question: With `COc1ccc(CCNCC(O)c2ccccc2C)cc1OC` (stereo not drawn) as the compound, how does the melting point read?
Answer: The melting point was 91 to 94 °C.

Question: With `Cc1cc(C(C)(C)O)ccc1-c1ccccc1` as the compound, how does the melting point read?
Answer: The melting point was 60 to 64 °C.

Question: Which melting point does the source give for `CCCN(CCC)CCc1ccc(OCc2ccccc2)c(NC(N)=O)c1` here?
Answer: Its melting point is 70 to 88 °C.

Question: Which melting point does the source give for `OC(c1ccc(F)cc1)(c1ccc(F)cc1)C1CCNCC1` here?
Answer: Its melting point is 160 °C.

Question: For `CCCCCCCCCCS(=O)(=O)NC(=O)c1cnc(C(=O)NCC(=O)OCC)c(OC)c1`, which melting point is on record?
Answer: Its melting point is 70 °C.

Question: For `CCCN1C(=O)N2CC(CC)N=C2c2c1ncn2C` (stereo not drawn), which melting point is on record?
Answer: Its melting point is 124 to 126 °C.

Question: For `Nc1cccc(-c2nc3n(n2)CCc2ccccc2-3)c1`, which melting point is on record?
Answer: Its melting point is 118 to 119 °C.

Question: With `N#Cc1ccc(-c2ccco2)cn1` as the compound, how does the melting point read?
Answer: The melting point was 115 to 116 °C.

Question: For `Clc1ncnc2c1ncn2-n1cccc1`, which melting point is on record?
Answer: The melting point was 204 to 206 °C.

Question: Which melting point does the source give for `Oc1ccc(-c2nc3cc(O)ccc3o2)cc1` here?
Answer: Its melting point is 264 to 267 °C.

Question: Which melting point does the source give for `CN1CCN(N=C2CC(c3ccc(C(F)(F)F)cc3)Cc3[nH]c4ccc(Cl)cc4c(=O)c32)CC1` (stereo not drawn) here?
Answer: The melting point was 330 °C.

Question: Which melting point does the source give for `CCN(CC)C(=O)Oc1nc(C)c2cc(OC)c(OC)cc2c1N` here?
Answer: The melting point was 206 to 207 °C.

Question: With `CC(C)(C)OC(=O)N[C@@H](CC1CCCCC1)[C@@H]1C[C@@H](C(C)(C)O)C(=O)O1` as the compound, how does the melting point read?
Answer: Its melting point is 123 to 125 °C.

Question: Which melting point does the source give for `O=C(NC(=O)N1CCC(Cc2ccc(F)cc2F)CC1)c1ccc(O)cc1` here?
Answer: Its melting point is 168 °C.

Question: With `CCOc1c(C=NO)c(=O)n(C)c(=O)n1C` as the compound, how does the melting point read?
Answer: Its melting point is 115 °C.

Question: Which melting point does the source give for `COc1ccc(C(=O)O)cc1OC1C=CCC1` (stereo not drawn) here?
Answer: The melting point was 160 to 163 °C.

Question: Which melting point does the source give for `COC(=O)CC1(CC(=O)N2CCN(C(=O)CC3=C(C(=O)OC)[C@H](c4c(Cl)cccc4Cl)C(C(=O)OC)=C(C[S@](=O)c4ccccc4)N3)CC2)CCCC1` here?
Answer: Its melting point is 100 to 104 °C.

Question: With `CCOC(=O)c1cn(CC)c2nc(Cl)c(F)cc2c1=O` as the compound, how does the melting point read?
Answer: The melting point was 150 to 160 °C.

Question: Which melting point does the source give for `COC(=O)CCCc1cc2nc(C(F)(F)F)ccc2n1S(=O)(=O)c1ccc2c(c1)OCCN2C` here?
Answer: Its melting point is 118 °C.

Question: With `CC(C)n1nc(-c2c(-c3ccccc3)nn3ccc(C(=O)NCc4cccnc4)cc23)ccc1=O` as the compound, how does the melting point read?
Answer: The melting point was 192 to 193 °C.
